Measured values reported in PMC8062851, “2-Methoxyestradiol and its derivatives inhibit store-operated Ca^2+ entry in T cells: Identification of a new and potent inhibitor” (Biochimica et Biophysica Acta. Molecular Cell Research, 2021).
Like-named read-outs stand apart in the source and are kept apart here.

Experiments:
[1] = tested on: SOCE in primary human CD4+ T cells; test: SOCE inhibition, Ca2+ free/Ca2+ re-addition protocol in primary human CD4+ T cells; format: cell-based
Protocol: Buffy coats were obtained from the blood bank of the University Medical Center Hamburg-Eppendorf (UKE) and peripheral blood mononuclear cells (PBMCs) were isolated by Biocoll density gradient centrifugation (Merck). Human CD4^+ T cells were isolated from PBMCs by negative selection using the EasySep Human CD4^+ T Cell Enrichment Kit (Stemcell Technologies) according to the manufacturer's protocol. The purity of the isolated cells was assessed by flow cytometry.
(§1) Jurkat T-lymphocytes, primary human CD4^+ T cells and H1299 cells were pelleted at 450 ×g for 5 min, rat TMBP at 300 ×g for 8 min at room temperature and were resuspended in 1 ml of either standard JMP medium (Jurkat, H1299 and human CD4^+ T cells) or standard DMEM based medium containing 10% fetal bovine serum (FBS) (v/v) (TMBP cells). Resting TMBP cells (day 5–7 after re-stimulation) after the second to fifth re-stimulation were thawed from liquid nitrogen 12 to 40 h prior to Fura2-loading. After pre-incubation for 5 min at 37 °C, cells were incubated with 4 μM Fura2-AM for 15 min at 37 °C. After addition of the dye, cells were kept in the dark. Afterwards, cells and the dye were diluted by addition of 4 ml standard medium and incubated for another 15 min. Cells were washed twice in Ca^2+ buffer (140 mM NaCl, 5 mM KCl, 1 mM MgSO4, 1 mM CaCl2, 1 mM NaH2PO4, 20 mM HEPES, 5.5 mM glucose; pH 7.4 (NaOH), sterile filtered) and were diluted to a concentration of 2*10^6 cells/ml. Subsequently, cells were kept at room temperature for 20 min for de-esterification before the start of the first measurement.
10^6 Jurkat T-lymphocytes, H1299 cells, TMBP cells or 4*10^6 primary human CD4^+ T cells were added into a 10 × 10 mm quartz glass cuvette (Hellma Analytics, Germany) that was placed into a fluorescence spectrophotometer (F-2710, Hitachi, Japan). […] Fluorescence intensity was measured at an emission wavelength of 495 ± 5 nm for both excitation wavelengths.

TMBP cells = test: In vitro activation of TMBP cells by MBP, cytokine mRNA by qPCR; format: cell-based, rat
Protocol: Myelin basic protein (MBP)-reactive CD4^+ T cells retrovirally transduced to express enhanced GFP (TMBP cells) were established as previously reported. In brief, 6–8 week old female Lewis rats were immunized subcutaneously with 150 μl of emulsion consisting of equal parts of MBP (stock concentration: 1 mg/ml) and complete Freund's adjuvant containing heat-inactivated Mycobacterium tuberculosis extract (Difco; stock concentration: 2 mg/ml). Draining lymph nodes were harvested and passed through a cell strainer (40 μm) 9–10 days after immunization. The cell suspension was co-cultured with GP + E86 packaging cell lines producing replication-deficient retroviruses in the presence of 10 μg/ml MBP. Murine IL-2 was added to the culture for T cell expansion from day 2–4 after stimulation. The cell lines underwent 3–4 cycles of stimulation before being used for in vitro and in vivo experiments. […] Upon stimulation, they produced interferon-γ and IL-17.
In vitro activation assays were performed in 96-well plates. […]. TMBP cell activation on mRNA level was determined using qPCR and on surface protein level using surface marker staining and subsequent flow cytometry analysis.
Total RNA was isolated using the standard TRIzol method. cDNA was synthesized using the RevertAid First Strand cDNA Synthesis Kit (Thermo Fisher Scientific). Quantitative PCR (qPCR) was performed using the StepOnePlus™ Real-Time PCR System (Applied Biosystems), as previously described [[23], [24], [25]]. Rat TMBP cell data were obtained from three to four independent duplicate measurements. β-actin served as housekeeping gene. Human PBMC data were obtained from two independent healthy donors and duplicate measurements (representative data of one donor are shown). HPRT served as housekeeping gene. For all probes (TaqMan), a combination of 5′-FAM and 3′-TAMRA quencher was used as described.

[2] = tested on: SOCE in human Jurkat T cells; test: cells; format: cell-based; settings: Ca2+ free/Ca2+ re-addition protocol, plateau 425-475 s after re-addition of 1 mM Ca2+
Protocol: as §1
In experiments using a Ca^2+ free/Ca^2+ re-addition protocol, cells were pelleted as described for Fura2 loading and Ca^2+ buffer was exchanged by 1 ml nominal Ca^2+ free buffer (140 mM NaCl, 5 mM KCl, 1 mM MgSO4, 1 mM NaH2PO4, 20 mM HEPES, 5.5 mM glucose; pH 7.4 (NaOH), sterile filtered) immediately before starting the measurement. The measurement was controlled by FL Solutions (Version 4.1, Hitachi High-Technologies Corporation). Fura2 was alternatively excited every 2 s at 340 ± 5 nm and 380 ± 5 nm, each 400 ms apart.
Finally, every measurement was calibrated using 0.1% (v/v) Triton X-100 to obtain a maximal ratio and 4 mM EGTA and 30 mM Tris to obtain a minimal ratio.
R is the ratio between F340 and F380. Rmin and Rmax are the minimal and maximal ratio, respectively, obtained by calibration. F380 min and F380 max are the minimal and maximal fluorescence intensity at 380 nm EX during the calibration. Finally, artefacts due to compound additions that usually could easily be identified and lasted about 8 s were deleted from the tracings using FL Solutions (Version 4.1, Hitachi High-Technologies Corporation). The fluorescence intensities of deleted data points were interpolated from those just before and after the deleted time points.
Estradiol, 2ME2 and 2ME2 derivatives were dissolved in DMSO at a concentration of 50 mM and stored at −20 °C for up to 6 months. For concentration-response curves, stock solution was freshly diluted with DMSO to obtain the same DMSO concentration of 0.2% (v/v) for all conditions.
The compound concentrations were then log transformed. Finally, the data were fitted to a corresponding nonlinear fit of variable slope using Prism 6 (GraphPad Software, USA).

SMILES: CCc1cc2c(cc1OS(N)(=O)=O)CC[C@@H]1[C@@H]2CC[C@]2(C)[C@@H](CC#N)CC[C@@H]12 [STX564, 2-ethyl-3-sulfamoyloxy-17β-cyanomethylestra-1,3,5(10)-triene]
- Ca2+ release upon drug addition in absence of extracellular Ca2+ ([1]; 10 μM): Ca^2+ release was observed directly upon drug addition
- steady-state plateau phase of Ca2+ entry ([1]; 10 μM): re-reached after a few min
- initial Ca2+ peak after Ca2+ re-addition and Ca2+ entry at later stages ([1]; 1 and 2 μM): efficiently inhibited
- concentration at which TCR/CD3-evoked pro-inflammatory cytokine expression was significantly reduced (TMBP cells; TMBP cells + MBP, 6 h, qPCR): ≥ 0.1 µM
- concentration at which interferon-γ expression was significantly antagonized (TMBP cells; TMBP cells + MBP, 6 h, qPCR, STX564 vs Synta66): ≥ 0.1 µM
- fold higher antagonist potency over Synta66, pro-inflammatory cytokine expression (TMBP cells; rat effector TMBP cells, especially INF-γ expression): approx. 100 fold
- IC50 ([2]; Homo sapiens, Jurkat, read-out: IC50 of SOCE inhibition, Jurkat T cells): 1200 nM
- IC50 ([2]; read-out: IC50 of SOCE inhibition, Jurkat T cells): ~1000 nM
